{"source": "patent US5522922A", "about": "“Aqueous ink composition” (priority 1993, dated 1996)", "assay": "LD50, oral dosing of mice or rabbits", "details": "in vivo", "text": "LD50 means a lethal dose (mg/kg) necessary to kill more than half of examined mice or rabbits when the mice or rabbits are orally dosed with a certain concentration. Safety improves as LD50 increases.\nAs is clear from Table 11, an aqueous ink composition of the present invention is 5 to 8 times more safe than a conventional aqueous ink composition. Therefore, to maintain this standard of safety, triethanolamine used in the present invention is limited to triethanolamine meeting the standards described in the present specification and the Japanese Standards of Cosmetic Ingredient (Yakuji Nippo, Ltd., second edition)."}
{"smiles": "CCN(CC)N=O", "note": "[Diethyl nitrosamine, diethyl nitrosamine]", "values": [{"measurement": "LD50", "value": 15, "unit": "mg/kg"}]}
